The text below walks through data of patent publication US20050158412A1, “Type II diabetes” (priority 2004, published 2005).

In the experiment the target is T1, Aldose Reductase (Rattus norvegicus, UniProt P07943).
T1 construct: Aldose Reductase was isolated from Rat lens; from tissue; host or cells: rat lens
The experiment in a line: Aldose Reductase enzyme assay. The format is biochemical. The following applies: Wistar rat lens enzyme. How it is done:
Experiments were conducted to test the effects of Morinda citrifolia products on Aldose Reductase. Aldose Reductase is an enzyme that is highly expressed in the eye (lens) of diabetic patients. High expression of Aldose Reductase may lead to blindness. Quantitation of Aldose Redutase activity was achieved by utilizing DL-Glyceraldehyde as a substrate. DL-Glyceraldehyde reacts with NADPH to form NADP+. A spectrophotometer was utilized to quantitiate levels of NADPH. Aldose Reductase was isolated from Rat lens. Quercertin was utilized as a reference compound. Methods employed in this study were adapted from the scientific literature to maximize reliability and reproducibility. […] Biochemical assay results are presented as the percent inhibition of specific binding or activity throughout the report. All other results are expressed in terms of that assay's quantitation method. For primary assays, only the lowest concentration with a significant response judged by the assays' criteria, is shown in this summary.

As to `O=c1c(O)c(-c2ccc(O)c(O)c2)oc2cc(O)cc(O)c12` [Quercetin], the “% INH. Aldose Reductase” value by setting is: (conc. 1%) 77%; (conc. 5%) 77%.
